“And” between values parts separate entries of the source, which are not always exact repeats. Equal entries are not always repeated. Toxic doses and inconclusive results are not listed. No stated cut-off is given here; in the data, active means T/C of 150% or more; inactive means T/C below 125%.
System: L1210 leukemia ip in BDF1 mice, survival T/C
Experiment: NCI In Vivo Anticancer Drug Screen. Data for tumor model L1210 Leukemia (intraperitoneal) in B6D2F1 (BDF1) mice
Conditions: endpoint: mean survival time, higher = longer survival
Procedure, shortened: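 Transplanted-tumor mice were given test agent; controls received vehicle only. Survival readings from the two groups were divided (treated over control).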

[1] = dose: 100.0 mg/kg/injection, schedule: Q01DX009 (ip), vehicle: saline with Tween-80
[2] = dose: 100.0 mg/kg/injection, schedule: Q04DX003 (ip), vehicle: saline with Tween-80
[3] = dose: 200.0 mg/kg/injection, schedule: Q01DX009 (ip), vehicle: saline with Tween-80
[4] = dose: 200.0 mg/kg/injection, schedule: Q04DX003 (ip), vehicle: saline with Tween-80
[5] = dose: 400.0 mg/kg/injection, schedule: Q01DX009 (ip), vehicle: saline with Tween-80
[6] = dose: 400.0 mg/kg/injection, schedule: Q04DX003 (ip), vehicle: saline with Tween-80
[7] = dose: 50.0 mg/kg/injection, schedule: Q01DX001 (ip), vehicle: carboxymethylcellulose (CMC)
[8] = dose: 100.0 mg/kg/injection, schedule: Q01DX001 (ip), vehicle: carboxymethylcellulose (CMC)
[9] = dose: 100.0 mg/kg/injection, schedule: Q01DX009 (ip), vehicle: saline
[10] = dose: 100.0 mg/kg/injection, schedule: Q04DX003 (ip), vehicle: saline
[11] = dose: 200.0 mg/kg/injection, schedule: Q01DX001 (ip), vehicle: carboxymethylcellulose (CMC)
[12] = dose: 200.0 mg/kg/injection, schedule: Q01DX009 (ip), vehicle: saline
[13] = dose: 200.0 mg/kg/injection, schedule: Q04DX003 (ip), vehicle: saline
[14] = dose: 400.0 mg/kg/injection, schedule: Q01DX001 (ip), vehicle: carboxymethylcellulose (CMC)
[15] = dose: 50.0 mg/kg/injection, schedule: Q01DX009 (ip), vehicle: saline
[16] = dose: 100.0 mg/kg/injection, schedule: Q01DX009 (ip), vehicle: Klucel (hydroxypropylcellulose) (HPC)
[17] = dose: 200.0 mg/kg/injection, schedule: Q01DX009 (ip), vehicle: Klucel (hydroxypropylcellulose) (HPC)
[18] = dose: 400.0 mg/kg/injection, schedule: Q01DX009 (ip), vehicle: Klucel (hydroxypropylcellulose) (HPC)
[19] = dose: 100.0 mg/kg/injection, schedule: Q01DX001 (ip), vehicle: other
[20] = dose: 200.0 mg/kg/injection, schedule: Q01DX001 (ip), vehicle: other
[21] = dose: 400.0 mg/kg/injection, schedule: Q01DX001 (ip), vehicle: other
[22] = dose: 400.0 mg/kg/injection, schedule: Q01DX009 (ip), vehicle: saline
[23] = dose: 100.0 mg/kg/injection, schedule: Q04DX003 (ip), vehicle: Klucel (hydroxypropylcellulose) (HPC)
[24] = dose: 200.0 mg/kg/injection, schedule: Q04DX003 (ip), vehicle: Klucel (hydroxypropylcellulose) (HPC)
[25] = dose: 400.0 mg/kg/injection, schedule: Q04DX003 (ip), vehicle: Klucel (hydroxypropylcellulose) (HPC)
[26] = dose: 100.0 mg/kg/injection, schedule: Q04DX002 (ip), vehicle: Klucel (hydroxypropylcellulose) (HPC)
[27] = dose: 200.0 mg/kg/injection, schedule: Q04DX002 (ip), vehicle: Klucel (hydroxypropylcellulose) (HPC)
[28] = dose: 400.0 mg/kg/injection, schedule: Q04DX002 (ip), vehicle: Klucel (hydroxypropylcellulose) (HPC)

Measured: T/C

c1ccc(N/N=C(\c2ccccc2)c2cccs2)cc1
inactive: [1] 97 % of control | [2] 98 % of control | [3] 97 % of control | [4] 104 % of control | [5] 91 % of control | [6] 98 % of control

COC(=O)C(Br)(Br)C(=O)OC
inactive: dose: 12.5 mg/kg/injection, schedule: Q04DX002 (ip), vehicle: saline with Tween-80 97 % of control | dose: 25.0 mg/kg/injection, schedule: Q04DX002 (ip), vehicle: saline with Tween-80 105 % of control | dose: 50.0 mg/kg/injection, schedule: Q04DX002 (ip), vehicle: saline with Tween-80 101 % of control

C(=Nc1ccccc1)c1ccccc1
inactive: [7] 98 % of control | [8] 96 % of control | [9] 98 % of control | [10] 104 % of control | [11] 91 % of control | [12] 100 % of control | [13] 105 % of control | [14] 91 % of control

Cc1cnc(=S)[nH]c1N
inactive: [15] 99 % of control | [9] 95 % of control | [10] 101 % of control | [12] 99 % of control | [13] 105 % of control

CSc1ccc(NC(=O)Oc2ccc(C(=O)OCc3ccccc3)cc2)cc1
inactive: dose: 100.0 mg/kg/injection, schedule: Q01DX001 (ip), vehicle: saline with Tween-80 100 % of control and 88 % of control | [1] 99 % of control and 87 % of control | dose: 100.0 mg/kg/injection, schedule: Q04DX002 (ip), vehicle: saline with Tween-80 97 % of control and 101 % of control | [2] 102 % of control | dose: 200.0 mg/kg/injection, schedule: Q01DX001 (ip), vehicle: saline with Tween-80 97 % of control | [3] 108 % of control and 89 % of control | dose: 200.0 mg/kg/injection, schedule: Q04DX002 (ip), vehicle: saline with Tween-80 97 % of control and 87 % of control | [4] 103 % of control | dose: 400.0 mg/kg/injection, schedule: Q01DX001 (ip), vehicle: saline with Tween-80 100 % of control | [5] 99 % of control and 92 % of control | dose: 400.0 mg/kg/injection, schedule: Q04DX002 (ip), vehicle: saline with Tween-80 95 % of control and 97 % of control | [6] 103 % of control

CCOC(=O)C(N)Cc1cc(I)c(O)c(I)c1 (stereo not given)
inactive: [2] 95 % of control | [4] 97 % of control | [6] 101 % of control

O=C(Nc1ccccc1F)Oc1ccc(OCc2ccccc2)cc1
inactive: [16] 101 % of control | [17] 101 % of control | [18] 101 % of control

O=C(Nc1ccc(C(F)(F)F)c([N+](=O)[O-])c1)c1ccc(C(=O)Nc2ccc(C(F)(F)F)c([N+](=O)[O-])c2)cc1
inactive: [19] 96 % of control | [20] 93 % of control | [21] 86 % of control

ClCc1ccc(OCc2ccccc2)c(OCc2ccccc2)c1
inactive: dose: 100.0 mg/kg/injection, schedule: Q04DX003 (ip), vehicle: water 104 % of control | dose: 200.0 mg/kg/injection, schedule: Q04DX003 (ip), vehicle: water 100 % of control | dose: 400.0 mg/kg/injection, schedule: Q04DX003 (ip), vehicle: water 102 % of control

Cc1c2cccc(Sc3ccc(F)cc3)c2c2c3c(cccc13)[S+](c1ccc(F)cc1)C2 (stereo not given)
inactive: dose: 12.5 mg/kg/injection, schedule: Q01DX001 (ip), vehicle: Klucel (hydroxypropylcellulose) (HPC) 100 % of control | dose: 25.0 mg/kg/injection, schedule: Q01DX001 (ip), vehicle: Klucel (hydroxypropylcellulose) (HPC) 94 % of control | dose: 50.0 mg/kg/injection, schedule: Q01DX001 (ip), vehicle: Klucel (hydroxypropylcellulose) (HPC) 90 % of control

CCOC(=O)CCC(C)=O
inactive: [9] 102 % of control | [12] 96 % of control | [22] 96 % of control

O=C(Nc1ccccc1)OC1CC=CC1
inactive: [10] 90 % of control | [13] 92 % of control | dose: 400.0 mg/kg/injection, schedule: Q04DX003 (ip), vehicle: saline 103 % of control

Cc1ccc(S(=O)(=O)Nc2ccc([N+](=O)[O-])cc2)cc1
inactive: dose: 100.0 mg/kg/injection, schedule: Q01DX001 (ip), vehicle: Klucel (hydroxypropylcellulose) (HPC) 97 % of control | dose: 200.0 mg/kg/injection, schedule: Q01DX001 (ip), vehicle: Klucel (hydroxypropylcellulose) (HPC) 97 % of control | dose: 400.0 mg/kg/injection, schedule: Q01DX001 (ip), vehicle: Klucel (hydroxypropylcellulose) (HPC) 113 % of control

O=[N+]([O-])c1ccc(N2CCCCC2)c([N+](=O)[O-])c1
inactive: dose: 25.0 mg/kg/injection, schedule: Q01DX009 (ip), vehicle: saline 96 % of control | [15] 102 % of control | [9] 96 % of control | [12] 98 % of control | [22] 96 % of control

C[N+](C)(C)C1C2(CCCCC2)NC(=O)C12CCCCC2 (stereo not given)
inactive: dose: 75.0 mg/kg/injection, schedule: Q01DX001 (ip), vehicle: saline 96 % of control

O=[N+]([O-])c1ccc(OCCBr)c(Cl)c1
inactive: [23] 92 % of control | [24] 97 % of control | [25] 96 % of control

CN(C)C(=S)SCSC(=S)N(C)C
inactive: dose: 25.0 mg/kg/injection, schedule: Q04DX003 (ip), vehicle: saline with Tween-80 100 % of control | dose: 50.0 mg/kg/injection, schedule: Q04DX003 (ip), vehicle: saline with Tween-80 91 % of control | [26] 97 % of control | [2] 91 % of control | [27] 93 % of control | [28] 93 % of control

CC(C)N(SSN(C(C)C)C(C)C)C(C)C
inactive: [2] 95 % of control | [4] 100 % of control | [6] 89 % of control

O=C(CBr)Nc1cccc(S(=O)(=O)F)c1
inactive: dose: 1.25 mg/kg/injection, schedule: Q01DX009 (ip), vehicle: carboxymethylcellulose (CMC) 89 % of control | dose: 2.5 mg/kg/injection, schedule: Q01DX009 (ip), vehicle: carboxymethylcellulose (CMC) 93 % of control | dose: 2.5 mg/kg/injection, schedule: Q04DX003 (ip), vehicle: carboxymethylcellulose (CMC) 100 % of control | dose: 5.0 mg/kg/injection, schedule: Q01DX009 (ip), vehicle: carboxymethylcellulose (CMC) 86 % of control | dose: 5.0 mg/kg/injection, schedule: Q04DX003 (ip), vehicle: carboxymethylcellulose (CMC) 100 % of control | dose: 10.0 mg/kg/injection, schedule: Q01DX001 (ip), vehicle: carboxymethylcellulose (CMC) 96 % of control | dose: 10.0 mg/kg/injection, schedule: Q04DX003 (ip), vehicle: carboxymethylcellulose (CMC) 93 % of control

CC12CCCCC1C1=C(CCCC1)CC2 (stereo not given)
inactive: [7] 97 % of control | [8] 92 % of control | [11] 94 % of control | [14] 97 % of control

Cc1nonc1C(N)=O
inactive: [26] 109 % of control | [27] 102 % of control | [28] 95 % of control

CCCCCCCCN(CCCCCCCC)NC(C)=O
inactive: dose: 50.0 mg/kg/injection, schedule: Q01DX001 (ip), vehicle: other 96 % of control | [19] 104 % of control | [20] 96 % of control | [21] 93 % of control

CN(C)c1ccc(C(=O)Oc2ccc([N+](=O)[O-])cc2)cc1
inactive: [16] 90 % of control | [23] 95 % of control | [17] 101 % of control | [24] 98 % of control | [18] 102 % of control | [25] 96 % of control

CCOC1=NCCCCC1OC(C)=O (stereo not given)
inactive: [16] 107 % of control | [17] 104 % of control | [18] 95 % of control

COc1ccc(F)cc1CC#N
inactive: [26] 98 % of control | [27] 98 % of control
